Assay [1] concerns small bowel tumor burden in APCmin mice. The experiment in a line: APCmin mouse model: small bowel tumor count after peptide vaccination. The format is in vivo. Particulars: for effect on small bowel tumor burden (tumor count): APCmin mice, vs CFA/IFA control, 50 ug per peptide s.c.; for peptide efficacy, APCmin Small Bowel (Spontaneous): summary table, Yes/No. As for the experimental part: (§1) Offspring from APCmin were genotyped by PCR for the presence of the Min mutation using primers as follows: Wild-Type: 5′-[…]-3′ (SEQ ID NO: 46), Common 5′-[…]-3′ (SEQ ID NO: 47), Mutant: 5′-[…]-3′ (SEQ ID NO: 48). Both male and female mice testing positive for the Min mutation were included in the study and randomized into groups.
(§2) At 4-6 weeks of age, mice were immunized in CFA/IFA, PBS, and vaccine groups. Each group received subcutaneous injections (100 ul PBS, 50 ul CFA with 50 ul PBS, 50 ug per peptide with 50 ul CFA) once every 7-10 days for a total of three doses and one booster was given 4-5 weeks after the third vaccine. See Table 5 for peptides included in vaccine compositions. CFA was replaced with IFA after the first vaccine. All mice were sacrificed at 14 to 17 weeks of age, the gastrointestinal tracts were collected and tumors counted.

For assay [2], the system named is colon tumor burden in APCmin mice. Briefly: APCmin mouse model: colon tumor count after peptide vaccination. The format is in vivo. Particulars: for effect on colon tumor burden (tumor count): APCmin mice, vs CFA/IFA control, 50 ug per peptide s.c.; for peptide efficacy, APCmin Colon (Spontaneous): summary table, Yes/No. As for the experimental part: as §1, §2
For assay [3], the system named is small bowel tumor burden in APCmin mice. Briefly: APCmin survival study: small bowel tumor count at sacrifice. The format is in vivo. Particulars: boosters every 4-5 weeks, vs CFA/IFA. As for the experimental part:
At 4-6 weeks of age, mice were immunized with CFA/IFA, PBS, and vaccine groups. Each group received subcutaneous injections (100 ul PBS, 50 ul CFA with 50 ul PBS, 50 ug per peptide with 50 ul CFA) once every 7-10 days for a total of three doses and a booster vaccine was given every 4-5 weeks after the third vaccine. See Table 6 for peptides included in vaccine compositions. CFA was replaced with IFA after the first vaccine. […] At sacrifice, small intestines were collected and small bowel tumors counted.

For assay [4], the system named is colon tumor burden in AOM mice (Azoxymethane + FVB). The experiment in a line: AOM mouse model: colon tumor count after peptide vaccination. It is filed as in vivo. Particulars: for effect on colon tumor burden (tumor count): AOM treated FVB mice, vs control group (CFA/IFA; PBS for IGF1R, PRL3, RCAS1); for peptide efficacy, Azoxymethane + FVB (Induced): summary table, Yes/No. The protocol: AOM mouse in-vivo experiments. At 6 weeks of age, FVB mice were immunized in CFA/IFA, PBS, and vaccine groups. Each group received subcutaneous injections (100 ul PBS, 50 ul CFA with 50 ul PBS, 50 ug per peptide with 50 ul CFA) once every 10-14 days for a total of three doses and a booster was given every 4-5 weeks after the third vaccine. See Table 7 for peptides included in vaccine compositions. CFA was replaced with IFA after the first vaccine. Seven days after the third vaccine, mice were injected with Azoxymethane (AOM) at 10 mg/kg, twice weekly for 6 weeks. At 26 weeks of age, all mice were sacrificed and tumors in the colon were counted.

In assay [5] the test system is MC-38 cells (murine adenocarcinoma). Briefly: MC-38 tumor implant model: tumor volume after peptide vaccination. The format is in vivo, C57Bl/6 mice. The conditions noted are these: for effect on tumor volume: MC-38 tumor implant in C57Bl/6 mice, vs CFA/IFA; for peptide efficacy, MC-38 + B6 (Tumor Implant): summary table, Yes/No. The protocol: MC-38 tumor implant in-vivo experiments. At 6 weeks of age, mice were immunized in CFA/IFA, PBS, and vaccine groups. Each group received subcutaneous injections (100 ul PBS, 50 ul CFA with 50 ul PBS, 50 ug per peptide with 50 ul CFA) once every 10-14 days for a total of three doses. See Table 9 for peptides included in vaccine compositions. CFA was replaced with IFA for the second and third vaccines. Two weeks after the final vaccine, we subcutaneously implanted 4×10^4 MC-38 cells (murine adenocarcinoma), and measured tumor growth with Vernier calipers 2-3 times per week. Tumor volume was calculated as length×width×height×π/6, which is the standard volume calculation of an ellipsoid. Mice were sacrificed when tumor size in control mice reached greater than 1000 mm^3.

“Also recorded” adds a separate entry of the source.

Consider “CDC25B: peptide vaccine of CDC25B #38 (p130-150) and #39 (p405-427), 50 ug per peptide with CFA/IFA (chain 1 QAIQAASRIIRNEQFAIRRFQ; chain 2 VDGKHQDLKYISPETMVALLTGK; with CFA/IFA adjuvant)”, for which, in assay [1], the “effect on small bowel tumor burden (tumor count)” value is given as “significantly inhibits; also recorded: vaccine efficacy” and the “peptide efficacy, APCmin Small Bowel (Spontaneous)” value was “Yes”. Moreover, in assay [2], the “effect on colon tumor burden (tumor count)” value (shortened to “effect on colon tumor burden”) is reported as “does not significantly inhibit; also recorded: lack of CDC25B vaccine efficacy” and the “peptide efficacy, APCmin Colon (Spontaneous)” value (“peptide efficacy, APCmin Colon” for short) is “No”. Besides, the “effect on small bowel tumor burden (tumor count)” value in assay [3] is listed as “does not significantly inhibit”. In assay [4], the “effect on colon tumor burden” value is on record as “vaccine efficacy; also recorded: significantly inhibits” and the “peptide efficacy, Azoxymethane + FVB (Induced)” value (shortened to “peptide efficacy … (Induced)”) was “Yes”. For the same substance, in assay [5], the “effect on tumor volume” value was “significantly inhibits” and the “peptide efficacy, MC-38 + B6 (Tumor Implant)” value (from here on “peptide efficacy, MC-38 + B6”) is given as “Yes”.

Consider “IGF1R: peptide vaccine of IGF1R #1, #2, #3, #4, 50 ug per peptide with CFA/IFA (chain 1 VVTGYVKIRHSHALV; chain 2 TQYAVYVKAVTLTMV; chain 3 LVIMLYVFHRKRNNS; chain 4 GMAYLNANKFVHRDL; with CFA/IFA adjuvant)”, for which, in assay [1], the “effect on small bowel tumor burden (tumor count)” value is listed as “vaccine efficacy; also recorded: significantly inhibits” and the “peptide efficacy, APCmin Small Bowel (Spontaneous)” value is reported as “Yes”. Besides, in assay [2], the “effect on colon tumor burden” value was “lack of IGF1R vaccine efficacy; also recorded: does not significantly inhibit” and the “peptide efficacy, APCmin Colon” value was “No”. Moreover, in assay [4], the “effect on colon tumor burden” value is reported as “lack of IGF1R vaccine efficacy; also recorded: does not significantly inhibit” and the “peptide efficacy … (Induced)” value is recorded as “No”. Moreover, in assay [5], the “effect on tumor volume” value is recorded as “does not significantly inhibit” and the “peptide efficacy, MC-38 + B6” value was “No”.

On to “COX2: peptide vaccine of COX-2 #32, #33, #34, 50 ug per peptide with CFA/IFA (chain 1 FKGFWNVVNNIPFLRN; chain 2 GLVPGLMMYATIWLREH; chain 3 GEVGFQIINTASIQSLIC; with CFA/IFA adjuvant)”, for which, in assay [1], the “effect on small bowel tumor burden (tumor count)” value is recorded as “significantly inhibits; also recorded: vaccine efficacy” and the “peptide efficacy, APCmin Small Bowel (Spontaneous)” value is given as “Yes”. In assay [2], the “effect on colon tumor burden” value is on record as “does not significantly inhibit; also recorded: lack of COX2 vaccine efficacy” and the “peptide efficacy, APCmin Colon” value was “No”. Moreover, in assay [3], the “effect on small bowel tumor burden (tumor count)” value was “does not significantly inhibit”. Moreover, in assay [4], the “effect on colon tumor burden” value was “vaccine efficacy; also recorded: significantly inhibits” and the “peptide efficacy … (Induced)” value is on record as “Yes”. In addition, in assay [5], the “effect on tumor volume” value was “significantly inhibits” and the “peptide efficacy, MC-38 + B6” value is “Yes”.

The values above are taken from US10759836B2, “Cancer vaccine compositions and methods of use thereof” (UNIVERSITY OF WASHINGTON, priority 2014, dated 2020).
